“Also recorded” adds a separate entry of the source. Where two headings read alike, the source gives them in different places. Blank lines part the entries; values can stand above or below the compound they belong to.
Columns and labels:
[1] = system: T. brucei rhodesiense (STIB 900); assay: In vitro antitrypanosomal activity against bloodstream forms; type: cell-based; conditions: Trypanosoma brucei, read-out: T. brucei rhodesiense (STIB 900) IC50
Method: Compounds 1–5 were tested for their in vitro activity against bloodstream forms of T. brucei rhodesiense (causative agent of East African HAT).

[2] = target: T1, recombinant TbGAPDH (Trypanosoma brucei brucei, UniProt P22512); assay: TbGAPDH inhibition assay (spectrophotometric, NADH at 340 nm); type: biochemical; conditions: for inhibition at 50 µM / % Inhibition at c = 50 µM: 50 µM test compound, n.i. = no inhibition at 50 µM
T1 construct: histidine tag (cleaved yes); made in house; host or cells: E. coli BL21 (DE3)
T1 sequence (P22512 whole entry): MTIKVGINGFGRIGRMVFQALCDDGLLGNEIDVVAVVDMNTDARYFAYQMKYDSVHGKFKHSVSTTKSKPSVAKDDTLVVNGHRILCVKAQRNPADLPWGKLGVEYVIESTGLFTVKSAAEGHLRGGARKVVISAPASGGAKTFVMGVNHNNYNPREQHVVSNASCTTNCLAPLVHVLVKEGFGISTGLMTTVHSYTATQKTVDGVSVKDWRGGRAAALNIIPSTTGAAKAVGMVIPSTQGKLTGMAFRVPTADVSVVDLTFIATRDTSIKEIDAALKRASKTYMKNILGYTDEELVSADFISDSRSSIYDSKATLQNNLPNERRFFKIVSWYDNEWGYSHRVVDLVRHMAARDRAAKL
Method: To experimentally validate the predictions of the in silico screening, a spectrophotometric assay with recombinant TbGAPDH, measuring the increase of NADH during the conversion of 3-phosophoglyceraldehyde into 1,3-bisphosphoglycerate, was used. The increase of absorbance at 340 nm was measured for 1 min after the addition of the substrate. Initially, each test compound was added in a concentration of 50 µM and the slope of the resulting linear plots of absorbance vs. time compared to that of a control recorded in the absence of an inhibitor.
In order to determine the activity of TbGAPDH, a spectrophotometric assay was used as described before. For that purpose, the increasing amount of produced NADH was measured at 340 nm with a Hitachi U-2900 UV-VIS-Spectrophotometer as a linear indicator for the activity of the catalytic protein. The activity determined without the addition of an inhibitor was set to 100%; the measured inhibitions were calculated accordingly. The assay was performed at 30 °C, in a buffer of 0.1 M TEA, 0.1 M glycine and 0.1 M EDTA with varying concentrations of the tested compounds in a total volume of 1 mL containing 7.17 µg TbGAPDH, 1.5 mM NAD^+ and 0.5 mM G-3-P. The tested inhibitors were solved in DMSO, resulting in a final concentration of 0.1%–1% of solvent in the assay solution. […] Typically, 5–7 different concentrations were measured (each of them in triplicate) to determine IC50 values, which were calculated using the software “Prism 3.00” (GraphPad) via nonlinear regression analysis. The measured concentration/effect curves are shown in Supplementary Figures S14–S18.

[3] = Cytotoxicity against mammalian cells; type: cell-based, rat
[4] = system: L6 rat skeletal myoblasts; assay: Cytotoxicity against mammalian cells; type: cell-based; conditions: SI = IC50(cytotoxicity)/IC50(parasite), L6 vs T. brucei rhodesiense
[5] = system: TbGAPDH; assay: Previously known TbGAPDH inhibitors (literature); type: biochemical, Trypanosoma brucei; conditions: literature IC50 12 µM compared with IC50 of Compound 2
Method: In comparison to previously-known TbGAPDH inhibitors, the IC50 values of our compounds are quite low, so that these hits obtained from in silico screening can be considered quite strong inhibitors of the target enzyme. To our knowledge, the strongest TbGAPDH inhibitor known up to now is a synthetic adenosine derivative with an IC50 of […] [17].

[6] = system: TbGAPDH; conditions: most active inhibitor of natural origin previously known; cited from earlier work
[7] = 30 °C, 1.5 mM NAD+, 0.5 mM G-3-P
[8] = 30 °C, 1.5 mM NAD+, 0.5 mM G-3-P, 5–7 concentrations in triplicate, nonlinear regression, read-out: IC50 (TbGAPDH inhibition)
[9] = bloodstream forms, mean ± margin of deviation of two independent determinations
[10] = L6 rat skeletal myoblasts, mean ± margin of deviation of two independent determinations, read-out: Cytotoxicity (L6) IC50

Structure (SMILES): Nc1nc(N)nc(Nc2ccc([As]3SCC(CO)S3)cc2)n1 (stereo not drawn) [Melarsoprol, reference compound]
IC50 [1]: 0.005 ± 0.001 µM

Structure (SMILES): CC(C)=CCC/C(C)=C/Cc1ccc(O)c(C(=O)c2c(O)cc(C(=O)O)cc2C(=O)O)c1O [NP-011694 (1)]
inhibition at 50 µM [2, 7]: > 50%
IC50 [2, 8]: 24.6 ± 1.03 µM
IC50 [1, 9]: 39.5 ± 3.1 µM
IC50 ([3]; rat): 50.6 ± 3.8 µM
SI (selectivity index) [4]: 1.3

Structure (SMILES): CC(C)=CCC/C(C)=C/Cc1ccc(O)c(C(=O)c2c(O)cc(C(=O)O)cc2C=O)c1O [NP-013296 (2)]
IC50 [2, 8]: 4.73 ± 1.04 µM
IC50 [1, 9]: 41 ± 0.5 µM
IC50 ([3]; rat): 48.7 ± 3.8 µM
SI (selectivity index) [4]: 1.2
SI (selectivity index) ([4]; listed as 2): not significantly selective

Structure (SMILES): CCCC(=O)c1c(O)c(C)c(O)c(CC2=C(O)C(C)(C)C(O)=C(C(C)=O)C2=O)c1O [NP-013330 (3), flavaspidic acid AB]
IC50 [2]: 22 ± 1.03 µM
IC50 [1, 9]: 17.9 ± 1.6 µM
IC50 [3, 10]: 54.2 ± 0.5 µM
SI (selectivity index) [4]: 3.0
SI (selectivity index) ([4]; listed as 3): not significantly selective; also recorded: three

Structure (SMILES): CC(C)=CCC/C(C)=C/Cc1ccc(O)c(C(=O)c2c(O)cc(C=O)cc2C(=O)O)c1O [NP-013378 (4)]
IC50 [2, 8]: 6.68 ± 1.04 µM
IC50 [1, 9]: 6.7 ± 2.2 µM
IC50 ([3]; rat): 48.9 ± 4.1 µM
SI (selectivity index) [4]: 7.3
SI (selectivity index) ([4]; listed as 4): seven

Structure (SMILES): Oc1cc(O)cc(CCC/C=C\CCCCCCCCCc2cc(O)cc(O)c2)c1 [NP-014428 (5)]
IC50 [2, 8]: 22.8 ± 1.01 µM
IC50 [1, 9]: 29.3 ± 6.3 µM
IC50 ([3]; rat): 15.5 ± 1.8 µM
SI (selectivity index) [4]: 0.5

Structure (SMILES): COc1cc([C@@H]2c3cc4c(cc3[C@H](O)[C@H]3COC(=O)[C@H]23)OCO4)cc(OC)c1OC [Podophyllotoxin, reference compound]
IC50 [3, 10]: 0.019 ± 0.002 µM

Structure (SMILES): COC(=O)/C=C(\C)CC[C@@]1(C)[C@H](C)CC[C@@]2(C)C(C(=O)O)=CCC[C@H]12 [monomethyl kolavate]
fold less potent than Compound 2 (TbGAPDH IC50) [5]: about 2.5 fold
IC50 [6]: 12 µM

Other lines, results leading:

inhibition at 50 µM [2, 7]: 44%
Structure (SMILES): CC(C)=CCc1c2c(c3occ(-c4ccc(O)c(O)c4)c(=O)c3c1O)C=CC(C)(C)O2 [NP-005755]

% Inhibition at c = 50 µM [2, 7]: n.i.
Structure (SMILES): CCCCCCC/C=C/C=C/C(=O)NCCc1ccc(O)cc1 [NP-007496]

% Inhibition at c = 50 µM [2, 7]: n.i.
Structure (SMILES): COc1cc(O)c2c(=O)c(-c3c(O)cc(O)c4c(=O)cc(-c5ccc(O)cc5)oc34)c(-c3ccc(O)cc3)oc2c1 [NP-008941]

% Inhibition at c = 50 µM [2, 7]: n.i.
Structure (SMILES): COc1ccc(/C=C/C(=O)c2c(OC)cc(OC)c(CC=C(C)C)c2OC)cc1 [NP-010904]

inhibition at 50 µM [2, 7]: 24%
Structure (SMILES): CC(C)=CCc1c(O)c2c(c3c1OC(C)(C)C=C3)OCC(c1ccc(O)cc1O)C2=O (stereo not drawn) [NP-012278]

inhibition at 50 µM [2, 7]: 33%
Structure (SMILES): CC(C)=CCc1c(O)c(CC=C(C)C)c2occ(-c3ccc(O)c(O)c3)c(=O)c2c1O [NP-013070]

% Inhibition at c = 50 µM [2, 7]: n.i.
Structure (SMILES): O=C(/C=C\c1ccc(O)cc1)NCCCCNC(=O)/C=C/c1ccc(O)cc1 [NP-015973]

inhibition at 50 µM [2, 7]: 45%
Structure (SMILES): C/C=C(\NC(=O)CCCCCCCCCCCCCCC(=O)O)C(=O)O [NP-019430]
